Reference: ChEMBL document CHEMBL1649191, “Genetic organization of transposase regions surrounding blaKPC carbapenemase genes on plasmids from Klebsiella strains isolated in a New York City hospital” (2009)
In brackets after ≈: the same amount, converted by molar mass.

Experiments:
Assay type in all cases: functional
Klebsiella pneumoniae [1] = experiment: Antimicrobial activity against blaKPC-positive Klebsiella pneumoniae S3 by broth microdilution method
Klebsiella pneumoniae [2] = experiment: Antimicrobial activity against blaKPC-positive Klebsiella pneumoniae S9 by broth microdilution method
Klebsiella pneumoniae [3] = experiment: Antimicrobial activity against blaKPC-positive Klebsiella pneumoniae S14 by broth microdilution method
Klebsiella pneumoniae [4] = experiment: Antimicrobial activity against blaKPC-positive Klebsiella pneumoniae S2 by broth microdilution method
Klebsiella pneumoniae [5] = experiment: Antimicrobial activity against blaKPC-positive Klebsiella pneumoniae S11 by broth microdilution method
Klebsiella pneumoniae [6] = experiment: Antimicrobial activity against blaKPC-positive Klebsiella pneumoniae S6 by broth microdilution method
Klebsiella pneumoniae [7] = experiment: Antimicrobial activity against blaKPC-positive Klebsiella pneumoniae S4 by broth microdilution method
Klebsiella pneumoniae [8] = experiment: Antimicrobial activity against blaKPC-positive Klebsiella pneumoniae S7 by broth microdilution method
Klebsiella pneumoniae [9] = experiment: Antimicrobial activity against blaKPC-positive Klebsiella pneumoniae S8 by broth microdilution method
Klebsiella pneumoniae [10] = experiment: Antimicrobial activity against blaKPC-positive Klebsiella pneumoniae S10 by broth microdilution method
Klebsiella pneumoniae [11] = experiment: Antimicrobial activity against blaKPC-positive Klebsiella pneumoniae S5 by broth microdilution method
Klebsiella pneumoniae [12] = experiment: Antimicrobial activity against blaKPC-positive Klebsiella pneumoniae S1 by broth microdilution method
Klebsiella oxytoca = experiment: Antimicrobial activity against blaKPC-positive Klebsiella oxytoca S13 by broth microdilution method
Klebsiella pneumoniae [13] = experiment: Antimicrobial activity against blaKPC-positive Klebsiella pneumoniae S12 by broth microdilution method
Klebsiella pneumoniae [14] = experiment: Antimicrobial activity against blaKPC-positive Klebsiella pneumoniae S15 by broth microdilution method

Compound | MIC (Klebsiella pneumoniae [1]) [µg/mL] | MIC (Klebsiella pneumoniae [2]) [µg/mL] | MIC (Klebsiella pneumoniae [3]) [µg/mL] | MIC (Klebsiella pneumoniae [4]) [µg/mL] | MIC (Klebsiella pneumoniae [5]) [µg/mL] | MIC (Klebsiella pneumoniae [6]) [µg/mL] | MIC (Klebsiella pneumoniae [7]) [µg/mL] | MIC (Klebsiella pneumoniae [8]) [µg/mL] | MIC (Klebsiella pneumoniae [9]) [µg/mL] | MIC (Klebsiella pneumoniae [10]) [µg/mL] | MIC (Klebsiella pneumoniae [11]) [µg/mL] | MIC (Klebsiella pneumoniae [12]) [µg/mL] | MIC (Klebsiella oxytoca) [µg/mL] | MIC (Klebsiella pneumoniae [13]) [µg/mL] | MIC (Klebsiella pneumoniae [14]) [µg/mL]
CO/N=C(\C(=O)N[C@@H]1C(=O)N2C(C(=O)[O-])=C(C[N+]3(C)CCCC3)CS[C@H]12)c1csc(N)n1 | > 64 | > 64 | > 64 | > 64 | > 64 | > 64 | 64 (≈ 133 µM) | > 64 | 64 (≈ 133 µM) | > 64 | > 64 | 32 (≈ 66.6 µM) | > 64 | > 64 | > 64
NCC[C@H](O)C(=O)N[C@@H]1C[C@H](N)[C@@H](O[C@H]2O[C@H](CN)[C@@H](O)[C@H](O)[C@H]2O)[C@H](O)[C@H]1O[C@H]1O[C@H](CO)[C@@H](O)[C@H](N)[C@H]1O [AMIKACIN] | 32 (≈ 54.6 µM) | 16 (≈ 27.3 µM) | 32 (≈ 54.6 µM) | 32 (≈ 54.6 µM) | 2 (≈ 3.42 µM) | 32 (≈ 54.6 µM) | 1 (≈ 1.71 µM) | 1 (≈ 1.71 µM) | > 64 | > 64 | 64 (≈ 109 µM) | 16 (≈ 27.3 µM) | 4 (≈ 6.83 µM) | 16 (≈ 27.3 µM) | 32 (≈ 54.6 µM)
C[C@H]1[C@H](NC(=O)/C(=N\OC(C)(C)C(=O)O)c2csc(N)n2)C(=O)N1S(=O)(=O)O [AZTREONAM] | > 64 | > 64 | > 64 | > 64 | > 64 | > 64 | > 64 | > 64 | > 64 | > 64 | > 64 | > 64 | > 64 | > 64 | > 64
CC(C)(O/N=C(\C(=O)N[C@@H]1C(=O)N2C(C(=O)[O-])=C(C[n+]3ccccc3)CS[C@H]12)c1csc(N)n1)C(=O)O [CEFTAZIDIME] | 64 (≈ 117 µM) | > 64 | > 64 | > 64 | 16 (≈ 29.3 µM) | > 64 | 8 (≈ 14.6 µM) | 32 (≈ 58.5 µM) | > 64 | > 64 | > 64 | > 64 | > 64 | > 64 | > 64
O=C(O)c1cn(C2CC2)c2cc(N3CCNCC3)c(F)cc2c1=O [CIPROFLOXACIN] | > 64 | > 64 | 64 (≈ 193 µM) | > 64 | 1 (≈ 3.02 µM) | > 64 | 0.06 (≈ 0.181 µM) | 32 (≈ 96.6 µM) | > 64 | > 64 | > 64 | > 64 | 0.06 (≈ 0.181 µM) | < 0.06 | > 64
C[C@@H](O)[C@H]1C(=O)N2C(C(=O)O)=C(SCCNC=N)C[C@H]12 [IMIPENEM ANHYDROUS] | 32 (≈ 107 µM) | > 64 | > 64 | 32 (≈ 107 µM) | 32 (≈ 107 µM) | 32 (≈ 107 µM) | 8 (≈ 26.7 µM) | 32 (≈ 107 µM) | 64 (≈ 214 µM) | 64 (≈ 214 µM) | 64 (≈ 214 µM) | 32 (≈ 107 µM) | 32 (≈ 107 µM) | 32 (≈ 107 µM) | 64 (≈ 214 µM)
C[C@@H](O)[C@H]1C(=O)N2C(C(=O)O)=C(S[C@@H]3CN[C@H](C(=O)N(C)C)C3)[C@H](C)[C@H]12 [MEROPENEM] | 64 (≈ 167 µM) | > 64 | 64 (≈ 167 µM) | 64 (≈ 167 µM) | 32 (≈ 83.4 µM) | 64 (≈ 167 µM) | – | 32 (≈ 83.4 µM) | 64 (≈ 167 µM) | 64 (≈ 167 µM) | 64 (≈ 167 µM) | > 64 | 32 (≈ 83.4 µM) | 32 (≈ 83.4 µM) | 64 (≈ 167 µM)
CN(C)c1cc(NC(=O)CNC(C)(C)C)c(O)c2c1C[C@H]1C[C@H]3[C@H](N(C)C)C(O)=C(C(N)=O)C(=O)[C@@]3(O)C(O)=C1C2=O [TIGECYCLINE] | 1 (≈ 1.71 µM) | 2 (≈ 3.41 µM) | 0.25 (≈ 0.427 µM) | 1 (≈ 1.71 µM) | 0.25 (≈ 0.427 µM) | 4 (≈ 6.83 µM) | 0.5 (≈ 0.854 µM) | 0.5 (≈ 0.854 µM) | 2 (≈ 3.41 µM) | 1 (≈ 1.71 µM) | 1 (≈ 1.71 µM) | 1 (≈ 1.71 µM) | 0.25 (≈ 0.427 µM) | 0.25 (≈ 0.427 µM) | 1 (≈ 1.71 µM)
GENTAMICIN | 2 | 1 | 32 | 2 | – | 1 | – | 8 | 8 | 8 | 1 | – | 8 | 16 | 2
POLYMYXIN B | 8 | 4 | 1 | 8 | 16 | 16 | 8 | 16 | 8 | 4 | 4 | 2 | 4 | 2 | 4
